Values of other authors as cited in patent US7541359B2, “N-heteroarylpiperazinyl ureas as modulators of fatty acid amide hydrolase” (Janssen Pharmaceutica N.V., priority 2005, dated 2009).

Key:
rats [1] = details: rat; cited from earlier work
rats [2] = details: cited from earlier work
rats [3] = details: cited from earlier work; remark: listed apart in the source
FAAH = molecular target: T1, FAAH (Homo sapiens, UniProt O00519); parameters: T84 frozen pellets (contents of 1-4×15 cm culture dishes) were homogenized in 300 mL of FAAH assay buffer; endogenous in cells; host or cells: T84 cells (homogenate); details: cited from earlier work
T1 sequence (O00519 1-579): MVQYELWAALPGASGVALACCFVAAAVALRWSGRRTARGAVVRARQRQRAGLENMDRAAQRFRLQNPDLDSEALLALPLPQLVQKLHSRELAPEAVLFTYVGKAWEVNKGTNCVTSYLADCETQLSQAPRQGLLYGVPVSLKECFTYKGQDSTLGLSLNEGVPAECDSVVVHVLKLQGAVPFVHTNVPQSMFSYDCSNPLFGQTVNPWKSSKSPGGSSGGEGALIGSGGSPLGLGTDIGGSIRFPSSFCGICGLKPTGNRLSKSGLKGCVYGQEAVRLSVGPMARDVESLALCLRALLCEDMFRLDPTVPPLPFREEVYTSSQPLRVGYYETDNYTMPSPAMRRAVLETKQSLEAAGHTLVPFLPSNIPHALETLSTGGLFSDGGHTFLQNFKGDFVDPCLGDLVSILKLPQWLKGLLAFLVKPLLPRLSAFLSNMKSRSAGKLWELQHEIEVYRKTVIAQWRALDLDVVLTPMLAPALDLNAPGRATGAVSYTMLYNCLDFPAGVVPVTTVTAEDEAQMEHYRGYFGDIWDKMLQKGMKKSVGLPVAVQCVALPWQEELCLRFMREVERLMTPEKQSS

rats [4] = details: cited from earlier work; remark: listed apart in the source
rats [5] = details: cited from earlier work; remark: listed apart in the source
rats [6] = details: cited from earlier work; remark: listed apart in the source
CREAE mice = details: model of multiple sclerosis; cited from earlier work

NC(=O)c1cccc(-c2cccc(OC(=O)NC3CCCCC3)c2)c1 [URB-597]
analgesic efficacy in the formalin test (rats [1]): analgesic efficacy
efficacy in the zero plus maze model of anxiety (rats [2]): efficacy
analgesic efficacy/activity in the hot plate test (rats [3]): analgesic efficacy

O=C(CCCCCCc1ccccc1)c1ncc(-c2ccccn2)o1 [OL-135]
inhibition of FAAH (FAAH): potent inhibitor
analgesic efficacy/activity in the hot plate test (rats [3]): analgesic activity
analgesic activity in the tail emersion test of thermal nociception (rats [4]): analgesic activity

Cc1nc(-c2ccccc2)c(-c2ccccc2)n1CCCCCCNC(=O)Oc1ccccc1F [BMS-1]
analgesic effect in the Chung spinal nerve ligation model of neuropathic pain (rats [5]): analgesic effect
analgesic effect in the Hargraves test of acute thermal nociception (rats [6]): analgesic effect

CCCCCCCCCCCCCCCCS(=O)(=O)F [AM374]
reduction of spasticity (CREAE mice): significantly reduce spasticity
